According to BindingDB's records for doi:10.1016/j.bmcl.2016.12.066 (China Pharmaceutical University, 2017):
pIC50: −log10 of the molar value.

molecular target: T1, Tissue factor (Homo sapiens, UniProt P13726); assay: ChEBML_1654816
Protocol: (§1) Inhibition of LPS-induced tissue factor procoagulant activity in human THP1 cells preincubated for 1 hr followed by LPS addition measured after 5 hrs using factor 10a chromogenic substrate in presence of prothrombin complex

T1 sequence (P13726 whole entry): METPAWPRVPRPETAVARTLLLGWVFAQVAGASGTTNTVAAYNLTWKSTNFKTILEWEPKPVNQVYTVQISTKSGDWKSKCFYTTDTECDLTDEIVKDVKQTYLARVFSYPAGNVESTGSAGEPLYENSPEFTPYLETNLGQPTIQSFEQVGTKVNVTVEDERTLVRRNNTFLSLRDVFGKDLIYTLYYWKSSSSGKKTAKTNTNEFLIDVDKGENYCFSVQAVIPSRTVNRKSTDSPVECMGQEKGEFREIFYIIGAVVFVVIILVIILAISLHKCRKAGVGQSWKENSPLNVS

| SMILES | pIC50 |
| --- | --- |
| CC1(C)CC[C@]2(C(=O)O[C@@H]3O[C@H](CO)[C@@H](O)[C@H](O)[C@H]3O)CC[C@]3(C)C(=CC[C@@H]4[C@@]5(C)CC[C@H](O)[C@@](C)(CO)[C@@H]5CC[C@]43C)[C@@H]2C1 [CHEBI:67947] | 9.55 |
| CC1(C)CC[C@]2(C(=O)O)[C@H](O)C[C@]3(C)C(=CC[C@@H]4[C@@]5(C)CC[C@H](O)C(C)(C)[C@@H]5CC[C@]43C)[C@@H]2C1 [CHEBI:4747] | 10.27 |
| CC1(C)CC[C@]2(C(=O)O)CC[C@]3(C)C(=CC[C@@H]4[C@@]5(C)CC[C@H](O[C@@H]6O[C@H](CO)[C@@H](O)[C@H](O)[C@H]6O)C(C)(C)[C@@H]5CC[C@]43C)[C@@H]2C1 [Vitalboside A] | 10.02 |
| C=C(C)[C@@H]1CC[C@]2(C(=O)O[C@@H]3O[C@H](CO)[C@@H](O)[C@H](O)[C@H]3O)CC[C@]3(C)C(CC[C@@H]4[C@@]5(C)CC[C@H](O[C@@H]6O[C@H](CO)[C@@H](O)[C@H](O)[C@H]6O)C(C)(C)[C@@H]5CC[C@]43C)[C@H]12 (some centres undefined) | 9.19 |
| CC1(C)CC[C@]2(C(=O)O[C@@H]3O[C@H](CO)[C@@H](O)[C@H](O)[C@H]3O)[C@H](O)C[C@]3(C)C(=CC[C@@H]4[C@@]5(C)CC[C@H](O)[C@](C)(CO)[C@@H]5CC[C@]43C)[C@@H]2C1 | 9.10 |
| COc1cc(/C=C/C(=O)CC(=O)/C=C/c2ccc(O)c(OC)c2)ccc1O [CHEBI:3962] | 7.89 |

molecular target: T1, Tissue factor; assay: as §1

| SMILES | pIC50 |
| --- | --- |
| C=C(C)[C@@H]1CC[C@]2(C(=O)O)CC[C@]3(C)C(CC[C@@H]4[C@@]5(C)CC[C@H](O)[C@@](C)(CO)[C@@H]5CC[C@]43C)[C@H]12 (some centres undefined) | 9.66 |
| C=C(C)[C@@H]1CC[C@]2(C(=O)O[C@@H]3O[C@H](CO)[C@@H](O)[C@H](O)[C@H]3O)CC[C@]3(C)C(CC[C@@H]4[C@@]5(C)CC[C@H](O)[C@@](C)(CO)[C@@H]5CC[C@]43C)[C@H]12 (some centres undefined) | 10.55 |
| CC1(C)CC[C@]2(C(=O)O[C@@H]3O[C@H](CO)[C@@H](O)[C@H](O)[C@H]3O)CC[C@]3(C)C(=CC[C@@H]4[C@@]5(C)CC[C@H](O)[C@](C)(CO)[C@@H]5CC[C@]43C)[C@@H]2C1 | 8.19 |
| CC1(C)CC[C@]2(C(=O)O[C@@H]3O[C@H](CO)[C@@H](O)[C@H](O)[C@H]3O)CC[C@]3(C)C(=CC[C@@H]4[C@@]5(C)CC[C@H](O[C@@H]6O[C@H](CO)[C@@H](O)[C@H](O)[C@H]6O)C(C)(C)[C@@H]5CC[C@]43C)[C@@H]2C1 | 7.80 |
| CC1(C)CC[C@]2(C(=O)O[C@@H]3O[C@H](CO)[C@@H](O)[C@H](O)[C@H]3O)[C@H](O)C[C@]3(C)C(=CC[C@@H]4[C@@]5(C)CC[C@H](O)C(C)(C)[C@@H]5CC[C@]43C)[C@@H]2C1 | 7.96 |
| CC1(C)CC[C@]2(C(=O)O)CC[C@]3(C)C(=CC[C@@H]4[C@@]5(C)CCC(=O)C(C)(C)[C@@H]5CC[C@]43C)[C@@H]2C1 [Oleanonic Acid] | 9.66 |
| CC1(C)CC[C@]2(C(=O)O)CC[C@]3(C)C(=CC[C@@H]4[C@@]5(C)CC[C@H](O)C(C)(C)[C@@H]5CC[C@]43C)[C@@H]2C1 [Oleanolic acid (OA)(Compound 1)] | 8.30 |
| CC1(C)CC[C@]2(C(=O)O[C@@H]3O[C@H](CO)[C@@H](O)[C@H](O)[C@H]3O)CC[C@]3(C)C(=CC[C@@H]4[C@@]5(C)CC[C@H](O)C(C)(C)[C@@H]5CC[C@]43C)[C@@H]2C1 [CHEBI:67985] | 10.46 |
| CC1(C)CC[C@]2(C(=O)O)CC[C@]3(C)C(=CC[C@@H]4[C@@]5(C)CC[C@H](O)[C@@](C)(CO)[C@@H]5CC[C@]43C)[C@@H]2C1 [4-Epi-Hederagenin] | 9.66 |
| CC1(C)CC[C@]2(C(=O)OCc3ccccc3)CC[C@]3(C)C(=CC[C@@H]4[C@@]5(C)CC[C@H](O)C(C)(C)[C@@H]5CC[C@]43C)[C@@H]2C1 [benzyl (4aS,6aS,6bR,8aR,10S,12aR,12bR,14bS)-10-hydroxy-2,2,6a,6b,9,9,12a-heptamethyl-1,3,4,5,6,7,8,8a,10,11,12,12b,13,14b-tetradecahydropicene-4a-carboxylate (Compound 4)] | 8.33 |
| CC1(C)CC[C@]2(C(=O)O)CC[C@]3(C)C(=CC[C@@H]4[C@@]5(C)CC[C@H](O)[C@](C)(CO)[C@@H]5CC[C@]43C)[C@@H]2C1 | 8.89 |
| C=C(C)[C@@H]1CC[C@]2(C(=O)O[C@@H]3O[C@H](CO)[C@@H](O)[C@H](O)[C@H]3O)CC[C@]3(C)C(CC[C@@H]4[C@@]5(C)CC[C@H](O)C(C)(C)[C@@H]5CC[C@]43C)[C@H]12 (some centres undefined) | 10.11 |
| CC1(C)CC[C@]2(C(=O)O[C@@H]3O[C@H](CO)[C@@H](O)[C@H](O)[C@H]3O)[C@H](O)C[C@]3(C)C(=CC[C@@H]4[C@@]5(C)CC[C@H](O[C@@H]6O[C@H](CO)[C@@H](O)[C@H](O)[C@H]6O)C(C)(C)[C@@H]5CC[C@]43C)[C@@H]2C1 | 8.02 |
